This note sets out measurements from US20100303758A1, “Novel Glucocorticoid Receptor Agonists” (priority 2009, published 2010).

In one test the target is T1, human GR (Homo sapiens, UniProt P04150).
T1 construct: SW1353 naturally expresses human GR; endogenous in cells; host or cells: human chondrosarcoma cell-line SW1353 stably transfected with an MMTV-luciferase reporter construct
T1 sequence (P04150 1-777): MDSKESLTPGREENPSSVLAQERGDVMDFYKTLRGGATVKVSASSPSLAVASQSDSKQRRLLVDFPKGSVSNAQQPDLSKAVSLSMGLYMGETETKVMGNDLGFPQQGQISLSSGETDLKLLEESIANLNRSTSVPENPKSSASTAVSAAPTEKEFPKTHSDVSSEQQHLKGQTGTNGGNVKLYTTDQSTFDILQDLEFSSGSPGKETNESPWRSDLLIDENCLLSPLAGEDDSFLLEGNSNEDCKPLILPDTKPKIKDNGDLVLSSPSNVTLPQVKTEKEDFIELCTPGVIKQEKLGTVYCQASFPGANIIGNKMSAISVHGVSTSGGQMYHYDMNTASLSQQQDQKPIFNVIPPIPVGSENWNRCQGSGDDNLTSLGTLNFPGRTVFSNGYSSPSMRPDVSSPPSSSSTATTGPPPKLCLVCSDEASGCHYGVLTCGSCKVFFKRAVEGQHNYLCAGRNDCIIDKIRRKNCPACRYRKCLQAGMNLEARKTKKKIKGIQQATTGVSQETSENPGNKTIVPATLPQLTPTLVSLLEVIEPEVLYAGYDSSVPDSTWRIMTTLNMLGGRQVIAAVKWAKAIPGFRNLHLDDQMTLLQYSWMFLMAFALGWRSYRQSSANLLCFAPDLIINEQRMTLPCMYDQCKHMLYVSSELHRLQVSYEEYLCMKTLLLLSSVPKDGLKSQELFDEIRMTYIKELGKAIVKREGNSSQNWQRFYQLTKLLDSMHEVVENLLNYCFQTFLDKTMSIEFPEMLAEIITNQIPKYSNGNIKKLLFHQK
Nature of the test: GR agonist potency, MMTV-luciferase reporter in SW1353 cells. Conditions: human chondrosarcoma cell-line SW1353 stably transfected with MMTV-luciferase reporter; approx. 18 hours; data as percentage of 1 μM dexamethasone positive control. The format is cell-based. As to the method:
Glucococorticoid receptor (GR) agonist potency was determined in the human chondrosarcoma cell-line SW1353 stably transfected with an MMTV-luciferase reporter construct. SW1353 naturally expresses human GR, which on binding a glucocorticoid agonist activates glucocorticoid response elements within the MMTV promoter, driving expression of the luciferase gene.
Frozen SW1353 cells were revived in DMEM medium, without sodium pyruvate or phenol red, supplemented with 2 mM L-glutamine, 1 μg/ml insulin, 2 mg/ml lactalbumin hydrosylate and 0.5 μg/ml ascorbate. Cells were seeded at approximately 5000 cells/well (35 μl/well) in 384-well clear bottom, tissue culture treated plates. Steroid dose-response dilutions were prepared in steroid diluent (PBS containing 2.5% (v/v) DMSO and 0.05% (v/v) pluronic detergent) and 5 μl added to each well. The volume was made up to 50 μl per well with steroid diluent. Positive control wells contained 1 μM dexamethasone. Plates were incubated for approximately 18 hours at 37° C. in an air/5% CO2 atmosphere in a humidified incubator before Britelite reagent (10 μl; Perkin-Elmer) was added to each well. Each plate was incubated for 2 minutes in the dark and luminescence quantified using a LJL Biosystems Analyst luminometer. Data for test compounds (expressed as percentage of the dexamethasone positive control) were used to construct dose response curves from which EC50 values were estimated.

The nature of test [1]: Inhibition of TNF-α release from LPS stimulated isolated human PBMC. The format is cell-based. Conditions: Homo sapiens, PBMC, read-out: IC50 (nM) for inhibition of TNF-α release. As to the method: The anti-inflammatory activity of the compounds against human leukocytes in vitro was also evaluated by determining inhibition of tumour necrosis factor-α (TNF-α) release from lipopolysaccharide (LPS) stimulated isolated human peripheral mononuclear cells (PBMC).
Peripheral venous blood from healthy, non-medicated donors was collected using ethylenediaminetetraacetic acid (EDTA) as the anti-coagulant. For PBMC preparation, samples of blood were diluted 1:1 with sterile phosphate buffered saline and then separated using ACCUSPIN™ System-Histopaque®-1077 tubes (Sigma-Aldrich, St Louis, Mo.), centrifuged at 400 g for 35 minutes. Buffy coat cells were removed into PBS, centrifuged at 200 g for 10 minutes and re-suspended in PBMC assay buffer (Hanks Balanced Salt Solution, 0.28% [w/v] 4-[2-hydroxyethyl]-1-piperazineethanesulfonic acid [HEPES], 0.01% [w/v] low-endotoxin bovine serum albumin [BSA]. A differential white cell count was performed and PBMC's diluted to 1×10^6 lymphocytes per ml in PBMC assay buffer.
Test compounds were dissolved in DMSO and diluted in PBMC assay buffer (final DMSO concentration 1%) to cover an appropriate concentration range, e.g 0.001 nM to 10000 nM. Samples of test compound solution or vehicle (20 μl) were added into 96-well tissue culture treated plates (Corning) and PBMC (160 μl) added to each well. The assay mixtures were incubated at 37° C. for 1 h in a humidified incubator containing an atmosphere of air supplemented with 5% CO2 before adding LPS (20 μl of 100 ng/ml for PBMC). Plates were returned to the incubator for a further 18 hours, and then centrifuged before recovery of samples of supernatant. TNF-α in the samples was determined using an enzyme-linked immunosorbent assay (ELISA) (Invitrogen kit no CHC-1754; Invitrogen Carlsbad, Calif.) and following the manufacturers instructions. Dose response curves were constructed from which IC50 values were calculated.

What is called EC50 is the concentration at which the effect is half-maximal. Higher therefore signals a need for much substance. As usually defined, the IC50 is the concentration that inhibits the measured activity by half. Take `C[C@]12C=CC(=O)C=C1CC[C@H]1[C@@H]3CC[C@](OC(=O)c4ccc(Oc5ccc(O)cc5)cc4)(C(=O)OCC#N)[C@@]3(C)C[C@H](O)[C@@]12F` [Example 16, cyanomethyl (11beta,17alpha)-9-fluoro-11-hydroxy-17-{[4-(4-hydroxyphenoxy)benzoyl]oxy}-3-oxoandrosta-1,4-diene-17-carboxylate]: at human GR, a half-maximal response (EC50) required 24 nM. In addition, the IC50 in test [1] was 0.067 nM.
`C[C@]12C=CC(=O)C=C1CC[C@H]1[C@@H]3CC[C@](OC(=O)c4ccc(Oc5cccc(O)c5)cc4)(C(=O)OCC#N)[C@@]3(C)C[C@H](O)[C@@]12F` [Example 17, cyanomethyl (11beta,17alpha)-9-fluoro-11-hydroxy-17-{[4-(3-hydroxyphenoxy)benzoyl]oxy}-3-oxoandrosta-1,4-diene-17-carboxylate]: the response on human GR was half-maximal at 37.9 nM (EC50). The half-maximal inhibitory concentration (IC50) in test [1] amounted to 0.157 nM.
With `C[C@]12C=CC(=O)C=C1CC[C@H]1[C@@H]3CC[C@](OC(=O)c4ccc(Sc5ccccc5)c(O)c4)(C(=O)OCC#N)[C@@]3(C)C[C@H](O)[C@@]12F` [Example 19, cyanomethyl (11beta,17alpha)-9-fluoro-11-hydroxy-17-{[3-hydroxy-4-(phenylthio)benzoyl]oxy}-3-oxoandrosta-1,4-diene-17-carboxylate], at human GR, the response was half-maximal at 44.8 nM (EC50). For the same compound, the IC50 in test [1] turned out to be 0.3 nM.
On to `C[C@]12C=CC(=O)C=C1CC[C@H]1[C@@H]3CC[C@](OC(=O)c4ccc(Sc5ccc(O)c(Cl)c5)cc4)(C(=O)OCC#N)[C@@]3(C)C[C@H](O)[C@@]12F` [Example 20, cyanomethyl (11beta,17alpha)-17-({4-[(3-chloro-4-hydroxyphenyl)thio]-benzoyl}oxy)-9-fluoro-11-hydroxy-3-oxoandrosta-1,4-diene-17-carboxylate], for which, on human GR, the EC50 amounted to 39.2 nM. Besides, the IC50 in test [1] came out at 0.29 nM.
In the same order, the values of `C[C@]12C=CC(=O)C=C1CC[C@H]1[C@@H]3CC[C@](OC(=O)c4ccc(Oc5ccccc5)cc4O)(C(=O)OCC#N)[C@@]3(C)C[C@H](O)[C@@]12F` [Example 21, cyanomethyl(11beta,17alpha)-9-fluoro-11-hydroxy-17-[(2-hydroxy-4-phenoxybenzoyl)oxy]-3-oxoandrosta-1,4-diene-17-carboxylate] are 49 nM and 0.656 nM.
`C[C@]12C=CC(=O)C=C1CC[C@H]1[C@@H]3CC[C@](OC(=O)c4ccc(Cc5ccccc5)cc4)(C(=O)SCF)[C@@]3(C)C[C@H](O)[C@@]12F` [Example 22, (11beta,17alpha)-9-fluoro-17-{[(fluoromethyl)thio]carbonyl}-11-hydroxy-3-oxoandrosta-1,4-dien-17-yl 4-benzylbenzoate] had a concentration for a half-maximal effect (EC50) on human GR of 69.9 nM. In addition, the IC50 in test [1] was determined as 0.087 nM.
At human GR, `CSc1cccc(Sc2ccc(C(=O)O[C@]3(C(=O)SCF)CC[C@H]4[C@@H]5CCC6=CC(=O)C=C[C@]6(C)[C@@]5(F)[C@@H](O)C[C@@]43C)cc2)c1` [Example 23, (11beta,17alpha)-9-fluoro-17-{[(fluoromethyl)thio]carbonyl}-11-hydroxy-3-oxoandrosta-1,4-dien-17-yl 4-{[3-(methylthio)phenyl]thio}benzoate] registered a 50% effective concentration (EC50) of 52.5 nM. For the same compound, the concentration for half-maximal inhibition (IC50) in test [1] turned out to be 0.536 nM.
With `C[C@]12C=CC(=O)C=C1CC[C@H]1[C@@H]3CC[C@](OC(=O)c4ccc(Sc5ccccc5)cc4)(C(=O)SCF)[C@@]3(C)C[C@H](O)[C@@]12F` [Example 24, (11beta,17alpha)-9-fluoro-17-{[(fluoromethyl)thio]carbonyl}-11-hydroxy-3-oxoandrosta-1,4-dien-17-yl 4-(phenylthio)benzoate], the EC50 on human GR came to 25.8 nM. Besides, the IC50 in test [1] is 0.117 nM.
For `C[C@]12C=CC(=O)C=C1CC[C@H]1[C@@H]3CC[C@](OC(=O)c4ccc(Oc5ccccc5)cc4)(C(=O)SCF)[C@@]3(C)C[C@H](O)[C@@]12F` [Example 25, (11beta, 17alpha)-9-fluoro-17-{[(fluoromethyl)thio]carbonyl}-11-hydroxy-3-oxoandrosta-1,4-dien-17-yl 4-phenoxybenzoate] the same measures were 19.8 nM and 0.026 nM.
